US20130095122A1, “Peptides or Antibodies Which Bind to Melanoma Inhibitory Activity (MIA) Protein” (priority 2010, published 2013)

Assays:
[1] = target: T1, MIA-MIA interaction (MIA-Ru(bpy)3 / immobilized MIA-biotin) (Homo sapiens, UniProt Q16674); assay: heterogeneous transition-metal based fluorescence polarization (HTFP) assay of MIA-MIA interaction; type: binding; details: MIA-Ru(bpy)3 55 fM in wells coated with MIA-biotin
T1 sequence (Q16674 25-131): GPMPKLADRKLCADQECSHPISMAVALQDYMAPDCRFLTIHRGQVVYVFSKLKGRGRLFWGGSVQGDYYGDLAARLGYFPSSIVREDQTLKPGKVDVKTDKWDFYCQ
Method: This becomes particularly evident in a heterogeneous transition metal-based fluorescence polarization assay (HTFP assay), wherein the ratio P/P0 is measured. P is the fluorescence polarization signal of a MIA protein labeled with a transition metal complex in the presence of substrate bound MIA-protein and of the peptide or antibody to be tested. P0 is the fluorescence polarization signal of free MIA-protein labeled with said luminescent transition metal complex in the absence of substrate bound MIA-protein and in the absence of said peptide or antibody. In the absence of the peptide or antibody, usually, the labeled MIA-protein would interact with the substrate bound MIA-protein, which, in turn, would contribute to a reduction in rotational mobility of the labeled MIA-protein, and therefore, the fluorescence polarization signal would increase upon such interaction. If, additionally, a peptide or antibody is present that interferes with such interaction, no or little dimerization/aggregation occurs and no or little increase in fluorescence polarization signal would be detected. […]
All measurements were performed at RT on a Polarstar Optima microplate reader (BMG Labtech, Offenburg, Germany). […]

[2] = tested on: murine B16 melanoma cells; assay: In vivo metastasis assay, Sig-AR71-HisTag expressing B16 clone injected into spleen; details: mice injected with Sig-AR71-HisTag expressing clone
Method: To determine the effect of peptide AR71 on the metastatic potential of murine B16 melanoma cells in vivo, a previously developed mouse metastases model was used.^19 1×10^5 cells of the AR71-HisTag expressing B16 cell clone AR71-His K4 as well as the corresponding mock control cells were injected into the spleen of mice (n=8 for mock control cells as well as for AR71-HisTag K4 cells, respectively). After nine days, mice were sacrificed, the livers were resected and the number and size of visible black tumor nodules on the surface of the livers was noticed. Tissues were fixed in formalin and afterwards paraffin embedded sections were hematoxylin and eosin stained for histological analysis.
Nine days after injection of the cells into the spleen, the mice were sacrificed, the livers were resected and tissue sections were prepared. Here, the inventors used the stably transfected murine B16 melanoma cells with a Sig-AR71-HisTag containing construct. […] The interference of AR71-HisTag with MIA-MIA interaction was also confirmed in the HTFP assay using wells coated with MIA-biotin (data not shown). Subsequently, a Sig-AR71-HisTag clone as well as a corresponding mock control was injected into the spleen of C57B16 mice, respectively. […]

[3] = target: T2, MIA (Homo sapiens, UniProt Q16674); assay: NMR titration of 15N-labeled MIA with peptide; type: binding; details: unlabeled peptide, increasing amounts
T2 sequence (Q16674 25-131): T1 sequence (Q16674 25-131)
Method: All spectra were recorded at 300 K and pH 7 on a Bruker DRX600 spectrometer equipped with a pulsed field gradient triple resonance probe. Water suppression in experiments recorded on samples in H2O was achieved by incorporation of a Watergate sequence into the various pulse sequences.^28-30 2D ^1H-^15N HSQC spectra with reduced signal loss due to fast exchanging protons were recorded using procedures described previously.^31 All spectra were processed with NMRPipe and analyzed with NMRView.^32-33 Data handling was performed with NMRView. Structure visualisation and superimpositions were done with PyMol (Delano, W. L., The PyMol Molecular Graphics System (2002) Delano Scientific, Palo Alto, Calif., USA).
The NMR titration of MIA with AR71 consisted of monitoring changes in chemical shifts and line widths of the backbone amide resonances of uniformly ^15N-enriched MIA samples as a function of ligand concentration.^34-37

With “Ac-FHWRYPLPLPGQ-NH2 [AR71, FHWRYPLPLPGQ]” the “interference with MIA-MIA interaction (decrease in fluorescence polarization signal, P/P0)” value [1] was “particularly potent in dissociating MIA dimers”, the “adverse effects on other organs and tissues” value [2] was “No adverse effects” and the “binding of peptide to MIA (chemical shift perturbations)” value [3] was “MIA binds to this peptide ligand”.
